Measured values reported in PMC8134483 (Scientific Reports, 2021).
Read-outs that look alike come from different tables or passages of the source.

How the values were obtained:
[1] = biological target: T1, hCB2R (Homo sapiens, UniProt P34972); test: CB2R bias analysis (operational model, cAMP inhibition vs βarrestin2); type: cell-based; conditions: CP55,940 as reference agonist; >0 cAMP bias, <0 βarrestin2 bias
T1 construct: host or cells: CHO-K1 (PathHunter)
Description: (§1) Estimates of Ki, EC50, Emin, and Emax were determined using non-linear regression with variable slope (four parameters) (GraphPad, Prism, v. 8.0). […] One-way analysis of variance (ANOVA), followed by Tukey’s post-hoc test, was used for statistical analyses (p < 0.05 determined to be significant); and Bartlett’s test was used to confirm homogeneity of variance (GraphPad).

[2] = biological target: T2, hCB1R (Homo sapiens, UniProt P21554); test: cell-based; type: cell-based; conditions: for CB1R versus CB2R selectivity, βarrestin2 recruitment: CB1R vs CB2R; for EC50: CHO hCB1R, 90 min, value with 95% CI, read-out: CB1R βarrestin2 recruitment EC50; for Emax: read-out: CB1R βarrestin2 recruitment Emax; for βarrestin2 recruitment to CB1R, activity in words: relative to CP55940
T2 construct: expressed in transfected cells; host or cells: CHO-K1
T2 sequence (P21554 whole entry): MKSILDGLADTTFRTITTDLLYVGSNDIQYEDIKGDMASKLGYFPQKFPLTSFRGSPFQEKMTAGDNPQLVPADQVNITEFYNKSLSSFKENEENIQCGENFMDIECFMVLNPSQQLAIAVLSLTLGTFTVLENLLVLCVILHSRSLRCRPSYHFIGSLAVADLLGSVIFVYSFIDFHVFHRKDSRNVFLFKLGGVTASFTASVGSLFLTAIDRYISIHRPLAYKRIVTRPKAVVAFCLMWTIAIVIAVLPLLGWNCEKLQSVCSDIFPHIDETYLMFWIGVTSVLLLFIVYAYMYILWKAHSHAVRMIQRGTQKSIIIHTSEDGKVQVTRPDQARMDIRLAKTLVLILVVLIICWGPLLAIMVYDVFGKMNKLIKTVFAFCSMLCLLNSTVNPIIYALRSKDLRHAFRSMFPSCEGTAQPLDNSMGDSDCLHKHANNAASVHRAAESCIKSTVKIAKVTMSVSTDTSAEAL

[3] = biological target: T2, hCB1R; test: CB1R bias analysis (operational model, cAMP inhibition vs βarrestin2); type: cell-based; conditions: CP55,940 as reference agonist; >0 cAMP bias, <0 βarrestin2 bias
Description: as §1

[4] = biological target: T1, hCB2R; test: [^3H]CP55,940 competition (radioligand displacement) binding to CB2R; conditions: for CB2R [^3H]CP55,940 Emin: bottom of the concentration–response curve, mean ± SEM
[5] = biological target: T2, hCB1R; test: biochemical; type: binding
[6] = biological target: T1, hCB2R; test: HitHunter inhibition of FSK-stimulated cAMP, CB2R; type: cell-based
[7] = biological target: T1, hCB2R; test: PathHunter βarrestin2 recruitment, CB2R; type: cell-based; conditions: for βarrestin2 recruitment to CB2R, activity in words: relative to CP55,940
[8] = biological target: T2, hCB1R; test: cell-based; type: cell-based; conditions: for EC50: CHO hCB1R, 10 µM FSK, 90 min, value with 95% CI, read-out: CB1R cAMP Inhibition EC50; for Emax: read-out: CB1R cAMP Inhibition Emax
[9] = system: male C57Bl/6 mice; test: Elevated plus maze (EPM); type: in vivo; conditions: 1.0 mg/kg i.p., 30 min after treatment, 5 min trial; for EPM total arm entries: vs vehicle
Description: Adult male C57BL/6 mice aged 6–10 weeks (mean weight 24 ± 0.5 g) were purchased from Charles River Labs (Senneville, QC). Animals were group housed (three per cage) with ad libitum access to food, water, and environmental enrichment and maintained on a 12 h light/dark cycle. Mice were randomly assigned to receive i.p. injections of vehicle (1:1:18 ethanol:emulphor:saline) or 0.1–10 mg/kg SCRA (n ≥ 4 per group). All protocols have been described previously and were in accordance with the guidelines detailed by the Canadian Council on Animal Care and approved by the Animal Research Ethics Board and the Scientific Merit Review Committee for Animal Behaviour at the University of Saskatchewan. The following steps were taken to ensure our study was in keeping with the ARRIVE guidelines: (1) power analyses were conducted to determine the minimum number of animals required for the study; (2) animals were purchased—rather than bred—to limit animal waste; and (3) all assessments of animal behaviour were made by individuals blinded to the treatment group,[57].
EPM was conducted according to methods adapted from Marks et al.. The EPM was built from a plywood base painted blue with blue corrugated plastic floor and walls. The floor of the maze was composed of perpendicular interlocking arms (110 cm long × 10 cm wide) with two arms having 45 cm walls (closed arms) and two arms having no walls and a 0.5 cm edge (open arms), all elevated 45 cm from the ground. Trials began with the mouse in the central zone facing an open arm. Trials lasted 5 min and began 30 min after SCRA treatment. An arm entry was considered to be all four limbs leaving the central zone. Arm entries and the percent time spent in open versus closed arms were recorded by an observer blinded to the treatment group. Less time in the open arms and more time in the closed arms was used as a model of anxiogenic behaviour.

[10] = bottom of the concentration–response curve, mean ± SEM

T1 sequence (P34972 whole entry): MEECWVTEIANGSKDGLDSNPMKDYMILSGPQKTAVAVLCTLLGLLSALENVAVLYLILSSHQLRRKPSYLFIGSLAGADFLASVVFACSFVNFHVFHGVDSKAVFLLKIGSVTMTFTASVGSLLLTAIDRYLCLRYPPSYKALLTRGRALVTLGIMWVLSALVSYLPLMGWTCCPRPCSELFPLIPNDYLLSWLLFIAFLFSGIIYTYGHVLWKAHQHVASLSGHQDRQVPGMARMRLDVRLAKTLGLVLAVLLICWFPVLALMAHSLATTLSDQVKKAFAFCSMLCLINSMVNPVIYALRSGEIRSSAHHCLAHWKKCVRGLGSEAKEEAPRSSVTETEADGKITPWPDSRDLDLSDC

SMILES: CCCC(F)Cn1nc(C(=O)NC(C(N)=O)C(C)C)c2ccccc21 (stereo not drawn) [AB-PINACA N-(2-fluoropentyl) isomer]
- CB2R bias between cAMP inhibition and βarrestin2 recruitment, ∆∆LogR (cAMP—βarr2), in words [1]: significant bias toward the recruitment of βarrestin2
- CB1R versus CB2R selectivity, βarrestin2 recruitment [2]: more potent for CB2R-dependent recruitment of βarrestin2 than CB1R-dependent recruitment of βarrestin2
- EC50 [2]: 240 nM
- Emax [2]: 204 ± 10%
- βarrestin2 recruitment to CB1R, activity in words [2]: greater potency and produced supramaximal EMax responses
- CB1R bias between cAMP inhibition and βarrestin2 recruitment, ∆∆LogR (cAMP—βarr2), in words [3]: did not display a bias
- Affinity for CB2R compared with CP55,940, in words [4]: significantly less affinity
- Competition of 1.0 nM [^3H]CP55,940 from CB2R, in words [4]: completely displaced
- Ki [4]: 270 nM
- CB2R [^3H]CP55,940 Emin [4]: 2.8 ± 8.1 %
- Competition of 1.0 nM [^3H]CP55,940 from CB2R, in words ([4]; listed as AB PINACA N-(2-fluoropentyl) isomer): fully competed
- Competition of 1.0 nM [^3H]CP55,940 from CB1R, in words [5]: only partially competing
- Ki [5]: 1.6 nM
- CB1R versus CB2R selectivity, receptor affinity ([5]; CB1R vs CB2R [^3H]CP55,940 binding): greater affinity at CB1R relative to CB2R
- CB1R [^3H]CP55,940 Emin [5, 10]: 76 ± 6.2 %
- EC50 [6]: 10 nM
- Emax [6]: 91 ± 3.2%
- EC50 [7]: 9.4 nM
- Emax [7]: 140 ± 12%
- βarrestin2 recruitment to CB2R, activity in words [7]: greater potency and produced supramaximal EMax responses
- EC50 [8]: 7.3 nM
- Emax [8]: 75 ± 7.5%
- CB1R-dependent inhibition of FSK-stimulated cAMP, activity in words ([8]; relative to CP55940): partial agonist

SMILES: CCCCCCC(C)(C)c1ccc([C@@H]2C[C@H](O)CC[C@H]2CCCO)c(O)c1 [CP55,940, reference compound]
- CB2R [^3H]CP55,940 Emin [4]: 0.0 ± 5.6%
- CB1R [^3H]CP55,940 Emin [5]: 0.0 ± 5.2%
- EPM time in the central quadrant [9]: majority of their time in the central quadrant immobile
- EPM total arm entries [9]: reduced total arm entries

SMILES: CC(C)C(NC(=O)c1nn(Cc2ccccc2F)c2ccccc12)C(N)=O (stereo not shown) [ortho-AB-FUBINACA]
- CB2R bias between cAMP inhibition and βarrestin2 recruitment, ∆∆LogR (cAMP—βarr2), in words [1]: significant bias toward the inhibition of cAMP
- CB1R versus CB2R selectivity, βarrestin2 recruitment [2]: more potent for CB2R-dependent recruitment of βarrestin2 than CB1R-dependent recruitment of βarrestin2
- EC50 [2]: 810 nM
- Emax [2]: 280 ± 11%
- βarrestin2 recruitment to CB1R, activity in words [2]: equipotent, but produced supramaximal EMax responses
- CB1R bias between cAMP inhibition and βarrestin2 recruitment, ∆∆LogR (cAMP—βarr2), in words [3]: significant bias toward the recruitment of βarrestin2
- Affinity for CB2R compared with CP55,940, in words [4]: significantly greater affinity
- Competition of 1.0 nM [^3H]CP55,940 from CB2R, in words [4]: completely displaced
- Ki [4]: 0.93 nM
- CB2R [^3H]CP55,940 Emin [4]: 17 ± 1.2%
- Ki [5]: 2.7 nM
- CB1R [^3H]CP55,940 Emin [5, 10]: 16 ± 5.4%
- EC50 [6]: 0.06 nM
- Emax [6]: 110 ± 6.7%
- EC50 [7]: 140 nM
- Emax [7]: 120 ± 3.1%
- βarrestin2 recruitment to CB2R, activity in words [7]: not different with regard to potency relative to the reference agonist CP55,940, and produced supramaximal EMax responses
- EC50 [8]: 3.6 nM
- Emax [8]: 83 ± 8.4%

SMILES: CCCCCc1cc(O)c2c(c1)OC(C)(C)[C@@H]1CCC(C)=C[C@@H]21 [∆^9-THC, ∆^9-tetrahydrocannabinol, reference compound]
- CB2R bias between cAMP inhibition and βarrestin2 recruitment, ∆∆LogR (cAMP—βarr2), in words [1]: did not display a bias
- CB2R [^3H]CP55,940 Emin [4]: 65 ± 7.6 %
- Emax [6]: 48 ± 3.8%
- CB2R-dependent inhibition of FSK-stimulated cAMP, activity in words ([6]; relative to CP55,940): significantly lower efficacy
- EPM open arm entries [9]: increased open arm entry
- EPM time in the open arms [9]: greater amount of time spent in the open arms
- EPM total arm entries [9]: did not change total arm entries
- Emax [7]: 58 ± 1.1%
- βarrestin2 recruitment to CB2R, activity in words [7]: significantly lower efficacy, but similar potency
